# Values joined by “and” are separate entries in the source; they are usually repeats but may differ in a detail not shown here. Equal values may be shown once. “Also recorded” adds a separate entry of the source. Read-outs that look alike come from different tables or passages of the source.
# Key:
# [1] = tested on: pig gastric circular muscle strips; experiment: EFS-induced submaximal cholinergic contractions of gastric circular muscle strips
# [2] = tested on: cholinergic neurons innervating pig gastric circular muscle; experiment: EFS-induced acetylcholine release (total radioactivity/tritium outflow) from pig gastric circular muscle strips
# [3] = tested on: pig colon descendens circular muscle; experiment: EFS-induced submaximal cholinergic contractions of colon circular muscle strips; settings: for effect on EFS-induced cholinergic contractions: cumulative half log unit increasing concentrations, IBMX effect range 1-30 μM; for influence on the facilitating effect of prucalopride on cholinergic neurotransmission: PDE inhibitor before prucalopride, data not shown
# Description: Young male pigs (10-12 weeks, 15-25 kg-breed Line 36) were obtained from […], Belgium. On the morning of the experiment, pigs were anaesthetized with an intramuscular injection of 5 ml Zoletil 100 (containing 50 mg/ml tiletamine and 50 mg/ml zolazepam; Virbac Belgium S.A., Belgium). […] The aerated (5% CO2/95% O2) Krebs-Henseleit solution in the organ baths (see example 11) systematically contained 4 μM of the noradrenergic neuron blocker guanethidine and 0.3 mM of the NO synthase inhibitor Nω-nitro-L-arginine methyl ester hydrochloride (L-NAME) to avoid noradrenergic and […] responses respectively. After 60 min of stabilization with refreshing of the Krebs-Henseleit solution every 15 min, strips were contracted with the muscarinic receptor agonist carbachol (3 μM). This procedure was repeated with a 20-min washout period in between. […] NK3, 0.3 μM SB222200) were added and incubated for 30 min before the first electrical stimulation. […] Strips were then stimulated for 1 hour (12 stimulations) with 5 min interval at supramaximal voltage (35 V) (10 s trains; 0.25 ms pulse duration; frequency of 4 Hz). […] The protocols as described in examples 12 and 13 then started. […] Changes in isometric tension were measured using MLT 050/D force transducers (ADInstruments, United Kingdom) and recorded on a PowerLab/8sp data recording system (ADInstruments, United Kingdom) with Chart v5.5.6 software. The obtained data were analysed as follows: […] Results are expressed as means±S.E.M., n referring to tissues from different animals except when otherwise indicated. Statistical analysis was performed by use of Graphpad Prism […]<0.05 was considered statistically significant. When adding PDE inhibitors cumulatively, the last contraction in the presence of each concentration was compared to the reference by repeated measures ANOVA followed by a Bonferroni corrected t-test. […] A cumulative concentration-response curve for the different PDE inhibitors was obtained by adding them in half log unit increasing concentrations, starting after 5 reproducible contractions at V50% had been obtained and registering the responses to 6 trains (30 min) after adding each concentration. Parallel to the cumulative concentration-response curve of rolipram, an isolated concentration-response curve was obtained by adding one single concentration per tissue in 3 animals. […] The solvents DMSO and ethanol were tested separately by adding them cumulatively in the matching dilutions as for the cumulative concentration series of the corresponding PDE inhibitor.
# PDE = settings: Beavo and Reifsnyder, 1990; read-out: IC50 range; cited from earlier work
# [4] = prucalopride 0.03, 0.1 or 0.3 μM
smiles,measurement,setting,value
CN1[C@@H]2CC[C@H]1C[C@@H](OC(=O)C(CO)c1ccccc1)C2 (some centres unmarked) [atropine],effect on EFS-induced contractions at V50% C,[1],abolished
Cn1cc(C(=O)OCC2CCN(CCNS(C)(=O)=O)CC2)c2ccccc21 [GR113808],"S2, EFS-induced outflow of total radioactivity above baseline",[2]; 1 nM GR113808 added 21 min before 0.3 μM prucalopride,43860 ± 4122 dpm g^−1 tissue
same,S2/S1 ratio of EFS-induced total radioactivity outflow,[2]; 1 nM GR113808 followed by 0.3 μM prucalopride,1.05 ± 0.08
same,"S2, EFS-induced outflow of total radioactivity above baseline",[2]; 10 nM GR113808 added 21 min before 0.3 μM prucalopride,39273 ± 9533 dpm g^−1 tissue
same,S2/S1 ratio of EFS-induced total radioactivity outflow,[2]; 10 nM GR113808 followed by 0.3 μM prucalopride,0.86 ± 0.04
same,"S2, EFS-induced outflow of total radioactivity above baseline",[2]; 100 nM GR113808 added 21 min before 0.3 μM prucalopride,47590 ± 8293 dpm g^−1 tissue
same,S2/S1 ratio of EFS-induced total radioactivity outflow,[2]; 100 nM GR113808 followed by 0.3 μM prucalopride,0.74 ± 0.05
same,influence on basal tritium outflow,"[2]; GR113808 1, 10, 100 nM",did not influence basal tritium outflow
same,influence on the facilitating effect of prucalopride on EFS-induced acetylcholine release,"[2]; GR113808 1, 10, 100 nM versus 0.3 μM prucalopride",concentration-dependently antagonized the facilitating effect of 0.3 μM prucalopride
same,"S1, EFS-induced outflow of total radioactivity above baseline","[2]; first stimulation S1, before drugs, tissues given 1 nM GR113808 then 0.3 μM prucalopride",42314 ± 3744 dpm g^−1 tissue
same,"S1, EFS-induced outflow of total radioactivity above baseline","[2]; first stimulation S1, before drugs, tissues given 10 nM GR113808 then 0.3 μM prucalopride",45180 ± 10235 dpm g^−1 tissue
same,"S1, EFS-induced outflow of total radioactivity above baseline","[2]; first stimulation S1, before drugs, tissues given 100 nM GR113808 then 0.3 μM prucalopride",49850 ± 8210 dpm g^−1 tissue
same,influence per se on EFS-induced contractions,"[1]; GR113808 1, 10 and 100 nM",did not influence the EFS-induced contractions
same,influence on the facilitating effect of prucalopride on EFS-induced contractions,"[1]; GR113808 1, 10 and 100 nM versus 0.3 μM prucalopride",concentration-dependently inhibited the facilitating effect of 0.3 μM prucalopride
CN(C(=O)CCCOc1ccc2[nH]c(=O)ccc2c1)C1CCCCC1 [cilostamide],influence on basal tritium outflow,"[2]; PDE inhibitor alone, 1 μM",None of these PDE-inhibitors alone influenced basal tritium outflow
same,"contraction at the 10th stimulation train, % of the response before",[1]; 1 μM cilostamide alone,59±13%
same,activity at 3 µM,"[1]; Sus scrofa, 3 μM cilostamide, maximal depression, read-out: EFS-induced contraction, reduction to % of response before PDE-inhibitor",68 ± 11%
same,influence on submaximal cholinergic contractions,[1]; cilostamide 0.01-10 μM,reduced the contractions from 0.1 μM onwards
same,potency versus IBMX in inhibiting EFS-induced cholinergic contractions,[3],about 100 times
same,inhibition at 0.03 µM,"[3]; Sus scrofa, 0.03 μM cilostamide",75%
same,effect on EFS-induced cholinergic contractions,[3],concentration-dependently inhibited EFS-induced cholinergic contractions
CCOC(=O)C1=C[C@]2(CC)CCCN3CCc4c(n1c1ccccc41)[C@@H]32 [vinpocetine],influence on basal tritium outflow,"[2]; PDE inhibitor alone, 10 μM",None of these PDE-inhibitors alone influenced basal tritium outflow
same,influence on submaximal cholinergic contractions,[1]; vinpocetine 0.01-10 μM,did not significantly influence the submaximal cholinergic contractions
same,influence on the facilitating effect of prucalopride on cholinergic neurotransmission,[3],did not influence the facilitating effect of prucalopride on cholinergic neurotransmission
O=C(Nc1c(Cl)cncc1Cl)c1ccc(OC(F)F)c(OCC2CC2)c1 [roflumilast],S2/S1 ratio of EFS-induced total radioactivity outflow,"[2]; 0.3 μM roflumilast alone, 36 min before S2",0.85±0.02
"COCCCN1CCC(NC(=O)c2cc(Cl)c(N)c3c2OCC3)CC1 [prucalopride, 4-amino-5-chloro-2,3-di-hydro-N-[r-(3-methoxypropyl)-4-piperidinyl]-7-benzo-furan-carboxamide]","S1, EFS-induced outflow of total radioactivity above baseline",[2],68328 ± 11006 dpm g^−1 tissue and 91698 ± 24563 dpm g^−1 tissue and 61343 ± 11445 dpm g^−1 tissue and 50543 ± 3791 dpm g^−1 tissue
same,"S2, EFS-induced outflow of total radioactivity above baseline",[2]; 0.03 μM prucalopride added 15 min before S2,62398 ± 8272 dpm g^−1 tissue
same,influence on EFS-induced tritium outflow,[2]; 0.03 μM prucalopride alone,enhanced EFS-induced tritium outflow
same,"S2, EFS-induced outflow of total radioactivity above baseline",[2]; 0.1 μM prucalopride added 15 min before S2,91877 ± 21668 dpm g^−1 tissue
same,"S2, EFS-induced outflow of total radioactivity above baseline",[2]; 0.3 μM prucalopride added 15 min before S2,61498 ± 9813 dpm g^−1 tissue and 52591 ± 2950 dpm g^−1 tissue
same,influence on basal tritium outflow,"[2]; prucalopride 0.03, 0.1 and 0.3 μM",did not influence the basal outflow
same,"electrically induced contractions, % of mean of 5 contractions before",[1]; 0.01 μM prucalopride alone,162±11%
same,"electrically induced contractions, % of mean of 5 contractions before",[1]; 0.03 μM prucalopride alone,171±15%
same,"electrically induced contractions, % of mean of 5 contractions before",[1]; 0.1 μM prucalopride alone,206±10%
same,effect on amplitude of the EFS-induced contractions,[1]; [4],progressively enhanced the amplitude of the EFS-induced contractions
same,influence on basal tone of the strips,[1]; [4],did not influence the basal tone of the strips
same,effect on EFS-induced cholinergic submaximal contractions,[3]; 1 μM prucalopride,systematically enhanced EFS-induced cholinergic submaximal contractions
COc1ccc(C2CNC(=O)C2)cc1OC1CCCC1 (centres unmarked) [rolipram],influence on basal tritium outflow,"[2]; PDE inhibitor alone, 1 μM",None of these PDE-inhibitors alone influenced basal tritium outflow
same,"mean contractile response to the 10th stimulation train, % of response before administration","[1]; 1 μM rolipram alone, before adding prucalopride, three tissue groups",114±8% and 115±8% and 122±9%
same,"individual contractile response to the 10th stimulation, % of response before administration","[1]; 1 μM rolipram alone, single tissues of the group later given 0.03 μM prucalopride",96% and 111% and 137% and 155% and 93% and 102% and 101% and 128%
same,influence on submaximal cholinergic contractions,[1]; 1-30 μM,did not significantly influence the submaximal cholinergic contractions
same,effect on EFS-induced contractions,"[3]; 3 μM rolipram, before prucalopride is added",did not enhanced the EFS-induced contractions
same,effect on EFS-induced contractions,[3]; 0.1 and 0.3 μM rolipram,significant increase of the EFS-induced contractions
"CC(C)Cn1c(=O)n(C)c(=O)c2[nH]cnc21 [IBMX, 3-isobutyl-1-methyl-xanthine]",influence on EFS-induced tritium outflow,[2]; IBMX 10 μM alone,nor did it influence EFS-induced tritium outflow; also recorded: did not significantly influence EFS-induced tritium outflow
same,influence on basal tritium outflow,"[2]; PDE inhibitor alone, 10 μM",did not influence basal
same,EFS-induced contractions decreased maximally to % of response before,"[1]; 3 μM IBMX, piglets",84±2%
same,effect on EFS-induced cholinergic contractions,[1]; 30 μM IBMX,nearly abolished
same,effect on amplitude of the EFS-induced cholinergic contractions,"[1]; IBMX, half log unit ascending concentrations",concentration-dependent reduction of the amplitude of the EFS-induced cholinergic contractions from 3 μM onwards
same,effect on EFS-induced cholinergic contractions,[3],concentration-dependently inhibited EFS-induced cholinergic contractions
same,IC50,PDE,2 to 50 µM
NC1=N[C@H](O)[C@H]2[C@H]3O[C@]4(O)O[C@@H]([C@@H](O)[C@@]2(N1)[C@@H]4O)[C@]3(O)CO [tetrodotoxin],effect on EFS-induced contractions at V50% C,[1],abolished
CC(C)n1c(=O)c(C(=O)N[C@H]2C[C@H]3CC[C@@H](C2)N3C[C@@H](O)CN(C)S(C)(=O)=O)cc2ccccc21 [velusetrag],S2/S1 ratio of EFS-induced total radioactivity outflow,[2],0.7±0.03
CCCCCC[C@@H]([C@@H](C)O)n1cnc2c(N)ncnc21 (racemic) [EHNA],S2/S1 ratio of EFS-induced total radioactivity outflow,[2]; 10 μM EHNA alone,0.51±0.05
same,influence on basal tritium outflow,"[2]; PDE inhibitor alone, 10 μM",did not influence basal
same,influence on submaximal cholinergic contractions,[1]; 1-30 μM,did not significantly influence the submaximal cholinergic contractions
same,influence on the facilitating effect of prucalopride on cholinergic neurotransmission,[3],did not influence the facilitating effect of prucalopride on cholinergic neurotransmission
